Patent publication US10413612B2, “Method of treating cancer with a biomaterial and a toll-like receptor agonist” (Dana-Farber Cancer Institute, Inc., priority 2016, dated 2019)
Several values for one entry are separate records, joined by “and”; a condition that tells them apart may be missing. Identical values can stand only once. One block for each molecule: values may come before it.

Tests used:
TLR7 [1] = molecular target: T1, TLR7 (Homo sapiens, UniProt Q9NYK1); settings: TLR7-transfected HEK293 cells; cited from earlier work
T1 construct: expressed in transfected cells; host or cells: HEK293
T1 sequence (Q9NYK1 27-1049): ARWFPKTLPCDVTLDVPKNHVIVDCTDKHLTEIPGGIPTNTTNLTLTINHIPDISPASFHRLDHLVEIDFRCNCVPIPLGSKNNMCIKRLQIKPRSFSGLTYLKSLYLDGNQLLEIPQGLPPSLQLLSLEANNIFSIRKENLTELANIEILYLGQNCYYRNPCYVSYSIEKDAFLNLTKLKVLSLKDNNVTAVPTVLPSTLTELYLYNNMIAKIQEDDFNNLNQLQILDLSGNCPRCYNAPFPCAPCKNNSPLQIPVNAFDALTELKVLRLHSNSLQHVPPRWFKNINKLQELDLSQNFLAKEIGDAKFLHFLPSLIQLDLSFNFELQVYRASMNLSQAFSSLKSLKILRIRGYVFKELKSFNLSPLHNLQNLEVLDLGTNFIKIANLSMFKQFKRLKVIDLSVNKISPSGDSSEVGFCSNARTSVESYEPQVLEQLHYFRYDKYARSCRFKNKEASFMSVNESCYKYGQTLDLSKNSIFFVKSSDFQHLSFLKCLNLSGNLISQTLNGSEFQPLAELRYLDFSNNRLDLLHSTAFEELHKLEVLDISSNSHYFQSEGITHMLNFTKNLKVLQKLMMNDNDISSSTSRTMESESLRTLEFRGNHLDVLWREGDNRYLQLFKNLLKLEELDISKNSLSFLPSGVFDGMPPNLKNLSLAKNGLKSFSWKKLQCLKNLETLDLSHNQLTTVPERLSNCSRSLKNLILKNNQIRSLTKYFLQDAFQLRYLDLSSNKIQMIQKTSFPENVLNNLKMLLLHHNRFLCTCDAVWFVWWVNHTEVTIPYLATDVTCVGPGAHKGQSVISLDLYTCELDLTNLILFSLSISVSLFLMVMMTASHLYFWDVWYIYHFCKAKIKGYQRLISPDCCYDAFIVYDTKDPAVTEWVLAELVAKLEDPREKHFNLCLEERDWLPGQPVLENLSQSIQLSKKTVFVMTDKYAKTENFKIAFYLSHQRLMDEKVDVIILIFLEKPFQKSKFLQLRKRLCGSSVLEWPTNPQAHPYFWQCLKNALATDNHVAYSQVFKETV

TLR8 = molecular target: T2, TLR8 (Homo sapiens, UniProt Q9NR97); settings: cited from earlier work
T2 construct: expressed in transfected cells; host or cells: HEK293
T2 sequence (Q9NR97 27-1041): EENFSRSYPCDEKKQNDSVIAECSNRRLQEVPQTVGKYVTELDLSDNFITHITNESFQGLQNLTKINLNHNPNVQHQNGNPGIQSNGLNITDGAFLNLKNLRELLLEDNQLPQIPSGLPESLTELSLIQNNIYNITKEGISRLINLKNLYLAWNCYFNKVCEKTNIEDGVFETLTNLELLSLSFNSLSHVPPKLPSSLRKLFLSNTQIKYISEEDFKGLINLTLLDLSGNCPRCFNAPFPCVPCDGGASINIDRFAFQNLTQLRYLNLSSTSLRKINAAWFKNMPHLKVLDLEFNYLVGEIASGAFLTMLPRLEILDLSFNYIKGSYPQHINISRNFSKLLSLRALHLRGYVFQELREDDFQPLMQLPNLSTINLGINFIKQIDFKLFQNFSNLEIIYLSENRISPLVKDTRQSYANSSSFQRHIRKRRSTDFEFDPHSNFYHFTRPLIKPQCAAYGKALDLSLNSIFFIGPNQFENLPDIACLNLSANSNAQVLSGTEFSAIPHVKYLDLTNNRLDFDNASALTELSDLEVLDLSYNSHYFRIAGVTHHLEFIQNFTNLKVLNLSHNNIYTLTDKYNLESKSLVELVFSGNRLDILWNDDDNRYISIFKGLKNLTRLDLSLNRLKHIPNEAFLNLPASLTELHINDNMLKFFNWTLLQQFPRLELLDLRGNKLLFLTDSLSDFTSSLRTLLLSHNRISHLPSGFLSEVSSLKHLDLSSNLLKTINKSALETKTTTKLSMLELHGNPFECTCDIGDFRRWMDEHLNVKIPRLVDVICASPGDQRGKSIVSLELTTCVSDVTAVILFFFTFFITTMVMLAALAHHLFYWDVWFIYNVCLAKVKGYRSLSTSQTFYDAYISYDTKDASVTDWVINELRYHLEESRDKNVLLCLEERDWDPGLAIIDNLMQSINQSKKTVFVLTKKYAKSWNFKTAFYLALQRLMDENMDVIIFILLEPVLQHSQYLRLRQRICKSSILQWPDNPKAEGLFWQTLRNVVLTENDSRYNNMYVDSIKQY

TLR7 [2] = molecular target: T1, TLR7; settings: cited from earlier work
[3] = In vivo release study (fluorescence IVIS imaging); set-up: species or system non-tumor-bearing mice; settings: mouse, in vivo
From the text: To evaluate the in vivo release profiles of Cy7 carboxylic acid (a model compound for R848), anti-PD-1, IL-15sa, and 2′3′-cGAMP, hydrogels containing the fluorophore or one of the fluorescently labeled payloads were surgically implanted into non-tumor-bearing mice.
The loading and release properties of the hydrogel were examined in additional experiments. […] It was then confirmed that the hydrogel extends the release of the small molecules and biologics in vivo. Cy7 carboxylic acid (Cy7-CA) was used as a model small molecule payload, as its physical properties are very similar to those of resiquimod (R848). Cy7-CA was administered to non-tumor-bearing mice, either in solution or loaded in a scaffold placed by the fourth mammary fat pad. The mice were assessed by fluorescence IVIS imaging (FIG. 37B), and the data were quantified (FIG. 37C). Whereas a loss of ˜60% of the signal was detected within two hours of administration of the fluorophore in solution, this amount of signal decay required 24 hours for the fluorophore loaded in the hydrogel. Over this time course, there was a […] for the latter group, on average.
To confirm that the hydrogel sustains the release of the small molecule and biologics in vivo, fluorescently labeled versions of 2 ? […]

4T1-Luc2 cells [4] = assay: Non-resected orthotopic 4T1-Luc2 tumors: peritumoral hydrogel or intratumoral injection; assay type: in vivo, mice; settings: single intratumoral (IT) injection
From the text: In certain embodiments, intraoperative placement of the immunotherapy-loaded hydrogel is required for therapeutic benefit.

4T1-Luc2 cells [5] = assay: Tumor re-challenge of surviving mice; assay type: in vivo; settings: mice with durable survival after loaded hydrogel
Experimental: The wound was closed with medical clips.
To gain insights into the soluble factors that are associated with the activation of innate and adaptive immune cells, the levels of cytokines in peripheral blood were measured. At multiple time points post-surgery, plasma was collected and subsequently analyzed by multiplexing laser bead technology. […] Indeed, the induction of a memory response was confirmed by re-challenging the surviving mice, 100% of which rejected the freshly inoculated 4T1-Luc2 cells (FIG. 94A).

[6] = system: 4T1-Luc2 syngeneic breast cancer cells; settings: for survival with compromised immune system: NK, CD8+ T or CD4+ T cells depleted or IFNAR1 neutralized; for survival benefit as innate immune activator component: hydrogel with IL-15sa and anti-PD-1 (devices 1, 14-16); for efficacy (tumor recurrence, metastasis, survival), in words: scaffold placed in tumor resection site 10 days after inoculation
Experimental: Seven-week-old female Balb/c mice were inoculated orthotopically with 100,000 4T1-Luc2 syngeneic breast cancer cells (into the fourth mammary fat pad). After 10 days, the mice were anesthetized, tumors were surgically resected, and compositions were placed in the resection site. […] The order of surgeries avoided systematic error by dividing up the groups. Standard follow-up care (wound clips, analgesic) was provided.
For the metastatic breast cancer model, 10^5 4T1-Luc2 or 4T1 cells (in 30 μl DPBS) were inoculated orthotopically into the fourth mammary pad of mice to generate a local tumor mass. Cells were injected without any incision to expose the fat pad. Mice were randomly assigned to treatment groups, and surgery was performed 10 days after tumor inoculation. For the metastatic melanoma and lung cancer models, 10^6B16-BL6 or 5×10^5 LLC cells (in 100 μl DPBS) were inoculated subcutaneously in mice to generate a local tumor mass. Mice were randomly assigned to treatment groups, and surgery was performed when tumor volumes reached ˜600 mm^3. While mice were kept under anesthesia at 2% isoflurane, the tumor was resected, and the hydrogel was placed in the site of the resultant cavity at the time of surgery. The wound was closed with medical clips. Control experiments were performed in which therapy was administered in solution at the site of surgery, intraperitoneally, or intravenously. For tumor re-challenge experiments, 10^4 4T1-Luc2 cells were inoculated in the contralateral fourth mammary fat pad. The surgeries were performed independently at least three times, and the surgeon was often blinded.
After surgery, mice were inspected weekly for tumor recurrence and distal metastasis by bioluminescence imaging (BLI). To this end, 10 min after intraperitoneal injection of D-luciferin (150 mg/kg), a substrate of Luc2, the mice were anesthetized with 2% isoflurane and imaged using an IVIS Spectrum In Vivo Imaging System (Perkin Elmer).
A series of compositions described above in Table 2 were evaluated in viva. In each group of evaluations, seven-week-old female Balb/c mice were inoculated orthotopically with 100,000 4T1-Luc2 syngeneic breast cancer cells (into the fourth mammary fat pad). After 10 days, mice were anesthetized, tumors were surgically resected, and the composition was placed in the resection site. Tumor relapse and metastasis were monitored via imaging over the course of 6 weeks.
Female BALB/cJ mice were inoculated orthotopically with 4T1-Luc2 breast cancer cells in their fourth mammary fat pad. Nine days later, the mice were imaged by bioluminescent IVIS imaging to confirm that the size of the tumors was consistent across animals to enable randomization into groups. On day 10 post-tumor inoculation, tumors (˜100 mm^3) were resected, and device 1 was placed in the tumor resection site. Controls included no treatment (sham), empty hydrogel (device 8/hydrogel 4), or delivery of the triple combination in solution (S+I+P)—via intraperitoneal injection, intravenous injection, or local administration.

Molecule: CCCCNc1nc(N)c2nc(O)n(Cc3ccc(C(=O)NCC(=O)O)cc3)c2n1 [CL264]
activating concentration, times less than imiquimod (TLR7 [1]): 5-10 times | concentration inducing NF-κB activation (TLR7 [1]): 0.1 µM | concentration without stimulation of TLR8 (TLR8): > 10 µg/mL

Molecule: CCCCNc1nc(N)c2nc(O)n(Cc3ccc(C(=O)NCC(=O)NCCCNCCCCNCCCN)cc3)c2n1 [CL307, N1-glycinyl[4-((6-amino-2-(butylamino)-8-hydroxy-9H-purin-9-yl)methyl)benzoyl]spermine]
concentration inducing robust NF-κB activation (TLR7 [2]): ≤ 20 nM and ≤ 10 ng/ml

increase in signal, hydrogel vs solution [3]: roughly three
Molecule: C[N+]1=C(/C=C/C2=CC(=C/C=C3/N(CCCCCC(=O)O)c4ccccc4C3(C)C)CCC2)C(C)(C)c2ccccc21.[Cl-] [Cy7-CA, Cy7 carboxylic acid]

Molecule: CCOCc1nc2c(N)nc3ccccc3c2n1CC(C)(C)O [Device R848, resiquimod]
survival (4T1-Luc2 cells [4]): did not prolong survival | surviving mice that rejected / survived re-challenge (4T1-Luc2 cells [5]): 100% | survival with compromised immune system [6]: exhibited reduced survival | survival benefit by mode of administration ([6]; hydrogel vs solution (weekly IV, weekly IP, local with empty hydrogel)): survival benefit was observed only when R848 was loaded in the hydrogel | survival benefit as innate immune activator component [6]: conferred meaningful benefit | tolerability (body weight) ([6]; mouse, in vivo): well tolerated | efficacy (tumor recurrence, metastasis, survival), in words [6]: prevented most effectively | survival benefit ([6]; three consecutive daily IP injections (200 μg)): failed to confer robust survival benefit

Molecule: Cc1cccc(-c2[nH]c(CNc3ccccc3F)nc2-c2ccc3ncnn3c2)n1 [EW7197]
efficacy of hydrogel with IL-15 superagonist, anti-PD-1 and the small molecule ([6]; small molecule dissolved in DMSO): provided less efficacious results

Molecule: Nc1ncnc2c1ncn2C1O[C@@H]2CO[P@@](=O)([S-])O[C@H]3[C@@H](O)[C@H](n4cnc5c(N)ncnc54)O[C@@H]3CO[P@@](=O)([S-])O[C@@H]1[C@@H]2O.[Na+].[Na+] (stereo partly shown) [STING-RR, 2′3′-c-di-AM(PS)2 (Rp,Rp)]
survival (4T1-Luc2 cells [4]): did not prolong survival | surviving mice that rejected / survived re-challenge (4T1-Luc2 cells [5]): 100% | survival with compromised immune system [6]: exhibited reduced survival | efficacy (tumor recurrence, metastasis, survival), in words [6]: prevented most effectively

Molecule: CCOC(=O)C1=Cc2ccc(-c3cccc(C#N)c3)cc2N=C(N)C1 [TL8-506]
potency in inducing NF-κB activation relative to CL075 (TLR8; TLR8-transfected HEK293 cells): ~25 × | potency in inducing NF-κB activation relative to R848 (TLR8; TLR8-transfected HEK293 cells): ~50 ×

Molecule: IL-21: pleiotropic cytokine
survival benefit as cytokine component ([6]; hydrogel with 2′3′-cGAMP and anti-PD-1 (devices 1, 13)): had little impact

Molecule: polyinosinic:polycytidylic acid [poly(I:C)]
survival benefit as innate immune activator component [6]: had little impact
